Test results from patent US20230321055A1, “PREVENTIVE TREATMENT OF MIGRAINE” (priority 2022, published 2023).

How the values were obtained:
[1] = oral administration; cited from earlier work
[2] = test system: participants with chronic migraine; assay: Phase 3 randomized, double-blind, placebo-controlled study of atogepant for prevention of chronic migraine: eDiary efficacy (migraine, headache and acute medication use days, responder rates); assay type: in vivo, human
Protocol: A phase 3, multicenter, randomized, double-blind, placebo-controlled, parallel-group study was carried out to evaluate the efficacy, safety, and tolerability of atogepant for the prevention of chronic migraine. A total of 778 participants from 133 sites in North America, Europe, and East Asia were randomized to one of three treatment arms (placebo, Atogepant 30 mg BID, and Atogepant 60 mg QD) in a 1:1:1 ratio.
This study comprised a 4-week screening and baseline period, a 12-week double blind treatment period, and a follow-up period of 4 additional weeks. The total study duration was 20 weeks. Participant disposition information and other relevant participant screening information may also be found in FIG. 19.
The primary end point was the change from baseline in the mean number of migraine days per month across the 12 week treatment period.
Secondary endpoints included change from baseline in mean monthly headache days across the 12 week treatment period; change from baseline in mean monthly acute medication use days across the 12-week treatment period; at least a 50% reduction in mean monthly migraine days across the 12-week treatment period; change from baseline in MSQ v2.1 Role Function-Restrictive domain score at week 12; change from baseline in mean AIM-D monthly functioning and activity impairment score across the 12-week treatment period; and change from baseline in HIT-6 total score at week 12.
Inclusion criteria included at least a 1-year history of chronic migraine consistent with diagnosis according to the International Classification of Headache Disorders, 3rd Edition (ICHD-3) and age of the participant at the time of migraine onset <50 years. Inclusion criteria further included confirmation of headache / migraine headache day frequency as follows: history of, on average, ≥15 headache days per month in the 3 months prior to Visit 1 in the opinion of the investigator AND >=15 headache days during the 4-week screening/baseline period per the electronic diary (eDiary) AND >=8 days during the 4-week screening/baseline period that qualify as being a migraine day per the eDiary. Participants were also required to be using a medically acceptable and effective method of birth control during the course of the entire study.
Exclusion criteria included a history of migraine, accompanied by diplopia or decreased level of consciousness, or retinal migraine; a current diagnosis of new persistent daily headache, trigeminal autonomic cephalgia (e.g., cluster headache), or painful cranial neuropathy; history of an inadequate response to >4 medications (2 of which have different mechanisms of action) prescribed for the prevention of migraine; and woman who is pregnant, planning to become pregnant during the course of the study, or currently lactating.
• All Screened Participants includes those screened participants who signed informed consent form. • The Intent-to-Treat Population includes all randomized participants. […] Treatment groups assigned as randomized.
A Subset of patients (11%) was allowed to use one concomitant migraine preventive medication (e.g., amitriptyline, propranolol, topiramate). Patients were allowed to use acute headache treatments (i.e., triptans, ergotamine derivatives, NSAIDs, acetaminophen, and opioids) as needed. Patients with acute medication overuse and medication overuse headache were also enrolled. The use of a concomitant medication that acts on the CGRP pathway was not permitted for either acute or preventive treatment of migraine. The study excluded patients with myocardial infarction, stroke, or transient ischemic attacks within six months prior to screening.
Outcomes for this analysis included change from baseline in mean MMDs during 4-week intervals, change in weekly migraine days during weeks 1-4, and the proportion of participants with a migraine on each day during the first 7 days of treatment. […] Baseline MMDs ranged from 18.6 to 19.2 across treatment groups. […]

[3] = 30 mg BID, Europe subpopulation
[4] = 30 mg BID, Off-Treatment Hypothetical Estimand population
[5] = 30 mg BID, acute medication over-users
[6] = 30 mg BID, mITT, listed as atogepant

## C[C@@H]1[C@H](c2c(F)ccc(F)c2F)C[C@H](NC(=O)c2cnc3c(c2)C[C@@]2(C3)C(=O)Nc3ncccc32)C(=O)N1CC(F)(F)F [Atogepant, (S)—N—((3S,5S,6R)-6-methyl-2-oxo-1-(2,2,2-trifluoroethyl)-5-(2,3,6-trifluorophenyl)piperidin-3-yl)-2′-oxo-1′,2′,5,7-tetrahydrospiro[cyclopenta[b]pyridine-6,3′-pyrrolo[2,3-b]pyridine]-3-carboxamide]
[1]
  half-life: approximately 11 hours
  time to maximum plasma concentrations: ≤ 2 h
[2]; [3]
  MMDs, LS mean difference vs. placebo: −3.02
  participants with ≥50% reduction in 3-month average of MMDs: 48.4%
  ≥50% reduction in 3-month average of MMDs, OR vs placebo: 1.87
[2]; 30 mg BID, Europe subpopulation of OTHE population (n=91)
  LS mean change in MMDs: −8.44
[2]; 30 mg BID, OTHE population
  decrease of monthly migraine days across the 12 weeks: 7.33 days
[2]; [4]
  >=50% reduction in 3-month average of monthly migraine days, Odds ratio Atogepant vs. Placebo: 2.03
  Change from baseline in mean monthly acute medication use days across the 12-week treatment period, LS Mean: -6.61 days
  Change from baseline in mean monthly acute medication use days across the 12-week treatment period, LSMD Atogepant vs. Placebo: -2.52 days
  Change from baseline in mean monthly headache days across the 12-week treatment period, LS Mean: -7.32 days
  Change from baseline in mean monthly headache days across the 12-week treatment period, LSMD Atogepant vs. Placebo: -2.14 days
  Change from baseline in mean monthly migraine days across the 12-week treatment period, LS Mean: -7.33 days
  Change from baseline in mean monthly migraine days across the 12-week treatment period, LSMD Atogepant vs. Placebo: -2.24 days
[2]; 30 mg BID, Off-Treatment Hypothetical Estimand population (N = 254)
  >=50% reduction in 3-month average of monthly migraine days, Responders: 107 (42.1) n (%)
[2]; [5]
  LSM change from baseline in mean monthly acute medication use days: −8.4
  mean monthly acute medication use days, LSM difference vs placebo: −2.8
[2]; 30 mg BID, acute medication overuse participants
  participants with ≥50% reduction in mean MMDs across the 12-week treatment period: 44.7%
[2]; 30 mg BID, mITT
  >=50% reduction in 3-month average of monthly migraine days, Odds ratio Atogepant vs. Placebo: 2.13
  Change from baseline in mean monthly acute medication use days across the 12-week treatment period, LS Mean: -6.73 days
  Change from baseline in mean monthly acute medication use days across the 12-week treatment period, LSMD Atogepant vs. Placebo: -2.63 days
  Change from baseline in mean monthly headache days across the 12-week treatment period, LS Mean: -7.44 days
  Change from baseline in mean monthly headache days across the 12-week treatment period, LSMD Atogepant vs. Placebo: -2.32 days
  Change from baseline in mean monthly migraine days across the 12-week treatment period, LS Mean: -7.46 days
  Change from baseline in mean monthly migraine days across the 12-week treatment period, LSMD Atogepant vs. Placebo: -2.41 days
  decrease of monthly migraine days across the 12 weeks: 7.46 days
  participants with ≥30% reduction in mean MMDs across 12 weeks: 62.1%
  participants with ≥50% reduction in mean MMDs across 12 weeks: 42.7%
  participants with ≥75% reduction in mean MMDs across 12 weeks: 21.3%
[2]; [6]
  Change from baseline in mean monthly migraine days across the 12-week treatment period, LS Mean: -7.5 days
  Change from baseline in mean monthly migraine days across the 12-week treatment period, LSMD Atogepant vs. Placebo: -2.4 days
[2]; 30 mg BID, participants with acute medication overuse at baseline
  LSM change from baseline in mean MMDs across 12 weeks: −8.3
[2]; 30 mg BID, weeks 1-4 of treatment
  mean change from baseline in MMDs: -6.6 days
[2]; 30 mg twice daily
  participants with <30% reduction in mean MMDs in month 1 who experienced ≥30% reduction in either month 2 or 3: 50/96
  participants with <30% reduction in mean MMDs in month 1 who experienced ≥30% reduction in month 2: 36/99
  participants with <50% reduction in mean MMDs in month 1 who experienced ≥50% reduction in either month 2 or 3: 52/132
  participants with <50% reduction in mean MMDs in month 1 who experienced ≥50% reduction in month 2: 32/136
  participants without ≥30% reduction in mean MMDs in months 1 or 2 who experienced a ≥30% response by the end of the trial: 23.3%
  participants without ≥50% reduction in mean MMDs in months 1 or 2 who experienced a ≥50% response by the end of the trial: 20.0%
[2]; 30 mg twice daily, mITT
  sustained response among participants with ≥75% response in month 1: 46.9%
  sustained response of ≥30% in months 2 and 3 among participants with ≥30% response in month 1: 81.8%
  sustained response of ≥50% in months 2 and 3 among participants with ≥50% response in month 1: 71.6%
[2]; 60 mg QD, Europe subpopulation
  MMDs, LS mean difference vs. placebo: −2.59
